Values quoted from earlier work as cited in patent US20240207206A1, “Improved Topical Composition of Colchicine” (Zenvision Pharma LLP, priority 2019, published 2024).

Details: in water

## COc1cc2c(c(OC)c1OC)-c1ccc(OC)c(=O)cc1[C@@H](NC(C)=O)CC2 [Colchicine, (S)N-(5,6,7,9-tetrahydro-1,2,3, 10-tetramethoxy-9-oxobenzo[alpha]heptalen-7-yl) acetamide]
  Solubility: soluble in water
